Results published in PMC6981123 (2020).

Experiments:
[1] = test system: h-TELO (DNA, G4) AGGGTTAGGGTTAGGGTTAGGG; assay: ITC; settings: 100 mM K+; 10 mM HEPES, pH 7.4, 298 K; h-TELO 5 μM in cell
[2] = test system: h-TELO (dual-labeled) (DNA, G4) AGGGTTAGGGTTAGGGTTAGGG; assay: FRET melting; settings: 100 mM K+; 10 mM HEPES, pH 7.4; MG 1.5 μM (3 equiv.), DNA 0.5 μM; Tm 49 to 76 °C
[3] = test system: h-TELO (DNA, G4) AGGGTTAGGGTTAGGGTTAGGG; assay: fluorescence titration of MG emission; settings: 100 mM K+; 10 mM HEPES, pH 7.4, 25 °C; MG 10 μM, h-TELO 0-6 μM

CCCCCCCCCCCCCCCCCC(=O)NCc1cn(CCCC(=O)OC[C@H]2O[C@@H](n3cnc4c(=O)[nH]c(N)nc43)[C@@H]3OC(C)(C)O[C@@H]32)nn1 was tested, and the Kd [1] was 4.48 µM, the ΔTm [2] was 27 °C and the Kd [3] was 3.2 µM.
